# US10725055B1, “Compounds for carbonyl sulfide/carbon disulfide/hydrogen sulfide release and methods of making and using the same” (University of Oregon, priority 2016, dated 2020)
# Entries after “also recorded” stand apart in the source; their conditions may differ. Read-outs that look alike come from different tables or passages of the source.
# Assays:
# [1] = system: BEAS 2B cells; experiment: Bioenergetic analysis in cultured cells (XF24 Extracellular Flux Analyzer); assay type: cell-based, human; settings: for ATP synthesis / maximal respiration / oxygen consumption linked with basal respiration: 1, 3, 10 μM, 24 hours; for inhibition of cellular bioenergetics: same conditions, 1, 3, 10 μM
# Text: Cells were then washed with PBS.
# [2] = system: BEAS 2B cells
# [3] = system: BEAS 2B cells; settings: for LDH levels: 10 μM, 24 hours
# Method: Lactate dehydrogenase (LDH) release was determined as a cytotoxicity assay, a measurement of necrotic cell death, as described previously. Briefly, 30 μL of supernatant was saved before addition of MTT and mixed with 100 μL of freshly prepared LDH assay reagent to reach final concentrations of 85 mM lactic acid, 1040 mM nicotinamide adenine dinucleotide (NAD+), 224 mM N-methylphenazonium methyl sulfate (PMS), 528 mM 2-(4-lodophenyl)-3-(4-nitrophenyl)-5-phenyl-2H-tetrazolium chloride (INT) and 200 mM Tris (pH 8.2). The changes in absorbance were read kinetically at 492 nm for 15 min (kinetic LDH assay) on a monochromator-based reader (Powerwave HT, Biotek) at 37° C. LDH activity values are shown as Vmax for the kinetic assays in mOD/min.
# [4] = system: porcine liver esterase (PLE); experiment: Esterase (PLE)-triggered H2S release, H2S-selective electrode
# [5] = H2S release from photo-triggerable compounds under UV light, methylene blue (MB) assay; settings: for peaking time for H2S release: 50 μM, LED UV light 365 nm, PBS pH 7.4, CA 25 μg/mL
# [6] = Total sulfide in whole mouse blood, monobromobimane (mBB) method; settings: 25 μM compound, 30 minutes incubation with excess TCEP
# [7] = target: CA from bovine erythrocytes (Bos taurus, UniProt P00921); assay type: biochemical
# Chain of CA from bovine erythrocytes (P00921 whole entry): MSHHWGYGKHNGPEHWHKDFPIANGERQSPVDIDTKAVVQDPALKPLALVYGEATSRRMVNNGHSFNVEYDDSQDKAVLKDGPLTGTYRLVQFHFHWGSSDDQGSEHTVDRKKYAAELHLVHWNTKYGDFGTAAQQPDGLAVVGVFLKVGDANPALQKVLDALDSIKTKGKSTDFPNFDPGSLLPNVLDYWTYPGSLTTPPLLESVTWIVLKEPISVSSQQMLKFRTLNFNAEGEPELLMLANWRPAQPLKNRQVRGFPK
# [8] = system: HeLa cells; experiment: Cytoprotection against H2O2-induced oxidative stress, CCK-8; assay type: cell-based; settings: H2O2 100 μM, compound 10-50 μM, 1 hour
# [9] = system: HeLa cells; experiment: Cytotoxicity in HeLa cells, CCK-8; settings: 10-100 μM, 2 hour incubation
# [10] = not given; remark: listed apart in the source
# [11] = system: HeLa cells; settings: 50 μM compound
# [12] = system: RAW 264.7 cells; settings: 50 μM compound
# [13] = H2O2-triggered H2S release from PeroxyTCM/TCM compounds, H2S electrode; settings: for H2S release efficiency: 50 μM compound; for H2S release upon treatment with H2O2: PBS pH 7.4, CA 25 μg/mL
# [14] = system: BEAS 2B cells; remark: listed apart in the source
# [15] = absence of esterase
# [16] = system: porcine liver esterase (PLE); experiment: H2S release from 5 detected with H2S-responsive fluorescent probe MeRho-Az; settings: 50 μM compound, 5 μM MeRho-Az, CA, 1 U/mL PLE
# [17] = H2S release from azidobenzyl thiocarbamate/carbamate after TCEP reduction in presence of CA, H2S electrode; settings: buffer containing CA; for H2S release upon injection of TCEP: TCEP added
# [18] = Fluorescence response of MeRho-TCA to NaSH and other RSONs
# [19] = NMR monitoring of self-immolation after TCEP reduction; assay type: physicochemical; settings: 1H, 13C{1H}, 19F NMR
# Text: In some embodiments, an azide in the para position of the benzylthiocarbamate was used to function as the H2S-responsive “trigger” for self-immolation and COS release. To facilitate NMR identification of the products, azidobenzylthiocarbamate (donor compound 1 of FIG. 2) was made with a p-fluoroaniline payload, and the corresponding carbamate (donor compound 2 of FIG. 2) as a control donor compound. Although donor compound 2 should undergo the same self-immolative decomposition upon azide reduction, it will release CO2 rather than COS, and thus should not result in H2S donation upon reaction with CA. […] The disappearance of the benzylic peak, loss of the thiocarbonyl carbon peak, and formation of new resonances upon self-immolation by NMR spectroscopy (FIGS. 3A-3C) confirmed that self-immolation occurs. All such changes were observed within 5 minutes of TCEP addition, confirming the rapid self-immolation of the scaffold upon reduction, and were consistent with COS release from the thiocarbamate scaffold upon azide reduction.
# [20] = COS gas in 10 mM PBS, pH 7.4, no CA
# [21] = at concentrations lower than 30 μM
structure (smiles),measurement,setting,value
NC(=S)OCc1ccccc1 [compound 7],ATP synthesis,[1],no effect
same,maximal respiration,[1],only slightly decreased maximal respiration at 10 μM
same,oxygen consumption linked with basal respiration,[1],no effect
same,cell viability (MTT reduction),"[2]; 10 μM, 24 hours",not observed
same,LDH levels,[3],not observed
same,direct cleavage of benzyl thiocarbamate moiety by PLE,[4]; control lacking the ester trigger,not cleaved directly by PLE
O=[N+]([O-])c1ccccc1COC(=S)Nc1ccc(F)cc1 [PhotoTCM-1],peaking time for H2S release,[5],~10 min
same,H2S generation in the absence of UV irradiation,"[5]; PBS pH 7.4, no UV",did not generate H2S
same,H2S release upon UV irradiation with CA,"[5]; UV 10 min, CA 25 μg/mL",significant enhancement of H2S concentration
same,H2S upon UV irradiation in the absence of CA,"[5]; UV 10 min, no CA",low levels of H2S
same,H2S upon UV irradiation with CA and acetazolamide (AAA),"[5]; UV, CA 25 μg/mL, AAA 10 μM",significantly reduced
same,H2S generation with cellular nucleophiles,"[5]; cysteine, homocysteine, GSH, GSSG, serine, lysine, in the presence of CA",does not generate H2S
Cc1ccc(NC(=S)OCc2ccc(N=[N+]=[N-])cc2)cc1 [compound 4],total sulfide levels in blood,[6],increased total sulfide levels in blood
"O=C=S [COS, carbonyl sulfide]",H2S production from COS,"[7]; COS gas in deoxygenated PBS, 1 mM CTAB, pH 7.4, with CA",rapid H25 production
same,H2S formation from COS,[7]; buffer in the absence of CA,negligible current; also recorded: minimal H2S formation
same,H2S from COS after H2O2 addition,[20],rapid H2S generation
same,H2S from COS prior to H2O2 addition,[20],No H2S was detected
"C1COCCN1.COc1ccc(P(=S)(S)N2CCOCC2)cc1 (stereo not shown) [GYY4137, reference compound]",inhibition of cellular bioenergetics,[1],No significant inhibition of cellular bioenergetics
same,"cytotoxicity, MTT assay, compared to DMSO vehicle",[2]; up to 30 μM,no significant cytotoxicity
same,"cytotoxicity, LDH assay, compared to DMSO vehicle",[3]; up to 30 μM,no significant cytotoxicity
CC1(C)OB(c2ccc(COC(=S)Nc3ccc(F)cc3)cc2)OC1(C)C [PeroxyTCM-1],cell viability / protection against H2O2-mediated oxidative stress,[8],significant dose-dependent increase of cell viability
same,cell viability (cytotoxicity),[9],No significant decrease in cell viability
same,"H2S release after incubation with H2O2, O2−, or ONOO−","[10]; 50 μM compound, RSONS 500 μM, CA 25 μg/mL, 20 min",resulted in H2S release
same,H2S release after incubation with other RSONS,"[10]; ClO−, HO, 1O2, TBHP, tBuO, Cys, GSH, GSSG, GSNO, NO2, SO4 2−, S2O3 2−, NO, HNO",failed to release H2S
same,H2S release with H2O2 in the absence of CA,"H2O2 10 equiv, no CA",positive H2S release response
same,HSN2 fluorescence after addition of H2O2,[11]; H2O2 25 μM or 50 μM,H2O2 dose-dependent increase in HSN2 fluorescence
same,HSN2 fluorescence in the absence of H2O2,[11]; HSN2 5 μM,no HSN2 fluorescence was observed
same,HSN2 signal after addition of PMA,[12]; 500 nM PMA,significant increase in signal from HSN2
same,HSN2 signal in the absence of PMA,[12]; HSN2 5 μM,no fluorescent signal from HSN2
same,H2S release efficiency,[13]; 250 μM H2O2,80%
same,H2S release efficiency,[13]; 500 μM H2O2,60%
Cc1ccc(NC(=O)OCc2ccc(OC(=O)C(C)(C)C)cc2)cc1 [compound 6],ATP synthesis,[1],increases
same,maximal respiration,[1],did not negatively impact
same,oxygen consumption linked with basal respiration,[1],increases
same,LDH levels,[3],not observed
Cc1ccc(NC(=S)OCc2ccc(OC(=O)C(C)(C)C)cc2)cc1 [compound 5],ATP synthesis,[1],negatively affected
same,maximal respiration,[1],negatively affected
same,oxygen consumption linked with basal respiration,[1],negatively affected
same,LDH levels,[3],increase in LDH levels
same,cytotoxicity during live cell imaging,[14],high cytotoxicity
same,stability in aqueous solution,[15],stable
same,H2S release with PLE,[4]; 1 U/mL PLE in the presence of CA,immediate H2S release
same,H2S release with increased PLE,"[4]; 20 U/mL PLE, otherwise identical conditions",significantly faster H2S release
same,rate of H2S production with acetazolamide (AAA),"[4]; PLE, CA, CA inhibitor AAA",significantly reduced the rate of H2S production
same,H2S generation without esterase,"[4]; pH 7.4 PBS, CA 25 μg/mL, no PLE",did not result in H2S generation
same,fluorescence response of MeRho-Az,[16],fluorescence turn-on consistent with H2S release
"[N-]=[N+]=Nc1ccc(COC(=O)Nc2ccc(F)cc2)cc1 [compound 2, O-(4-Azidobenzyl)-N-(4-fluorophenyl)carbamate]",H2S release upon injection of TCEP,[17],no H2S was produced
"[N-]=[N+]=Nc1ccc(COC(=S)Nc2ccc3c(c2)Oc2ccccc2C32OC(=O)c3ccccc32)cc1 (stereo not shown) [MeRho-TCA, O-(4-Azidobenzyl)-N-methylrhodolthiocarbamate]",fluorescence turn-on,"[18]; 50 equivalents of NaSH, PBS, 1 mM CTAB, pH 7.4, over 90 minutes",65 fold
same,selectivity of fluorescence response,"[18]; vs Cys, GSH, Hcy, S2O3 2-, SO3 2-, SO4 2-, H2O2, NO",excellent selectivity for H2S over other RSONs
"O=C(CCCCCCCCC[P+](c1ccccc1)(c1ccccc1)c1ccccc1)Oc1ccc(-c2cc(=S)ss2)cc1.[Br-] [AP39, reference compound]",inhibition of cellular bioenergetics,[1],No significant inhibition of cellular bioenergetics
same,"cytotoxicity, MTT assay",[2]; at 30 μM,minimal cytotoxicity
same,"cytotoxicity, MTT assay",[2]; [21],none
same,"cytotoxicity, LDH assay",[3]; at 30 μM,minimal cytotoxicity
same,"cytotoxicity, LDH assay",[3]; [21],none
"Cc1ccc(NC(=S)OCc2ccccc2)cc1 [compound 3, O-(4-Benzyl)-N-tolylthiocarbamate]",total sulfide levels in blood,[6],Only samples containing donor 4 with the azide trigger increased total sulfide levels
O=C(Nc1ccc(F)cc1)OCc1ccccc1[N+](=O)[O-] [PhotoCM-1],H2S release upon UV irradiation with CA,"[5]; UV 10 min, CA 25 μg/mL",no H2S release was observed
Cc1ccc(NC(=S)OCc2ccccc2)cc1 [TCM-2],H2S release upon treatment with H2O2,[13],did not release H2S
COc1cc(COC(=S)Nc2ccc(F)cc2)c([N+](=O)[O-])cc1OC [PhotoTCM-2],peaking time for H2S release,[5],~10 min
Fc1ccc(NC(=S)OCc2ccccc2)cc1 [TCM-1],H2S release upon UV irradiation with CA,"[5]; UV 10 min, CA 25 μg/mL",did not release H2S
same,cell viability / protection against H2O2-mediated oxidative stress,[8],no protection
same,cell viability (cytotoxicity),[9],No significant decrease in cell viability
same,H2S release upon treatment with H2O2,[13],did not release H2S
"[N-]=[N+]=Nc1ccc(COC(=S)Nc2ccc(F)cc2)cc1 [compound 1, O-(4-Azidobenzyl)-N-(4-fluorophenyl)thiocarbamate]",time to NMR changes showing self-immolation after TCEP addition,[19],≤ 5 min
same,H2S release upon injection of TCEP,[17],rapid release of H2S
same,H2S formation before TCEP,[17]; no TCEP,did not result in H2S formation; also recorded: no H2S is formed
CC1(C)OB(c2ccc(COC(=O)Nc3ccc(F)cc3)cc2)OC1(C)C [PeroxyCM-1],cell viability / protection against H2O2-mediated oxidative stress,[8],attenuated rescue from oxidative stress
same,cell viability (cytotoxicity),[9],No significant decrease in cell viability
